# Results from publication PMC6370995, “Phase I study of PF‐04895162, a Kv7 channel opener, reveals unexpected hepatotoxicity in healthy subjects, but not rats or monkeys: clinical evidence of disrupted bile acid homeostasis” (Pharmacology Research & Perspectives, 2019).
# Tests used:
# healthy subjects = assay: Phase 1 clinical study in healthy subjects: safety (adverse events, laboratory tests); format: in vivo, human
# Procedure: A randomized, double‐blind, third‐party open (i.e., subject and Investigator blind, and Sponsor open), placebo‐controlled study was conducted in healthy subjects to investigate the safety, tolerability, and pharmacokinetics of single and multiple oral doses of PF‐04895162 and to characterize the effect of food on the pharmacokinetics of a single oral dose of PF‐04895162. The study was conducted in accordance with the International Conference on Harmonization guideline for Good Clinical Practice and the principles of the Declaration of Helsinki and was approved by the local independent ethics committee. All subjects gave written informed consent prior to participation in the study. The study was planned as a parallel group, dose escalation study in four cohorts of 10 subjects each, however, the study was terminated prematurely and only Cohort 1 was conducted. After an initial screening visit to confirm eligibility, subjects in Cohort 1 (Figure 1) received single oral doses of 300 mg PF‐04895162 in Period 1 (under fasting conditions) and Period 2 (under fed conditions), and then 300 mg BID PF‐04895162 or placebo for 14 days (under fasting conditions) in Period 3 (the final dose was administered on the morning of Day 14). In Period 2, subjects were given a high‐fat breakfast 25 minutes prior to dosing which had to be consumed within 20 minutes. In all periods, subjects were fasted for at least 8 hours prior to morning dosing (except for breakfast in Period 2), and received lunch and dinner approximately 4 and 9‐10 hours after the morning dose, respectively. In Period 3, subjects were randomized so that eight subjects received PF‐04895162 and two subjects received placebo. The single doses in Periods 1 and 2, and the first dose in Period 3 were each separated by 3 days. A follow‐up visit was conducted 7‐14 days after the final dose. The ClinicalTrials.gov identifier was NCT01691274.
# Subjects were healthy males and/or females of nonchildbearing potential, aged 18 to 55 years inclusive with body mass index of 17.5 to 30.5 kg/m^2 and total body weight of >50 kg. Healthy was defined as no clinically relevant abnormalities identified by a detailed medical history, full physical examination, including blood pressure and pulse rate measurement, 12 lead electrocardiograms (ECGs) or clinical laboratory tests. Subjects with evidence or history of clinically significant disease (including drug allergies, but excluding untreated, asymptomatic, seasonal allergies at the time of dosing) and pregnant or nursing females were excluded from this study. Subjects with a history of seizures or conditions with a risk of seizures were also excluded. Other exclusion criteria were generally standard for healthy subject studies and included conditions affecting drug absorption, evidence of drug and/or alcohol abuse, and restrictions on the use of prescription, nonprescription, and over‐the‐counter medications and herbal remedies.
# Safety was assessed throughout the study by monitoring adverse events, vital signs (blood pressure, pulse rate, and body temperature), 12‐lead ECGs, and physical examinations. Blood samples for safety laboratory assessments were collected prior to and 24 hours after the first single dose of PF‐04895162 (Day 1 and 2 of Period 1), and in Period 3 on Days 7, 14, and 21 (additional samples were also collected in response to emerging safety data). The Columbia suicide severity rating scale (C‐SSRS) was also conducted at screening or baseline and at the follow‐up visit. Blood samples for pharmacokinetic profiles of PF‐04895162 were collected from predose to 72 hours after each single dose (Periods 1 and 2), and up to 12 and 48 hours after morning dosing on Days 7 and 14, respectively, in Period 3. Additional trough samples were also collected on Days 5, 6, 12, and 13 of Period 3.
# human hepatocytes = assay: mitochondrial respiratory reserve in human hepatocytes; format: cell-based; conditions: human hepatocytes treated for 25 minutes (data not shown)
# [1] = 300 mg single dose, fasted, N = 10
# [2] = 300 mg single dose, fed, N = 10
# [3] = Grade 1, >1.25 - 2.5 × ULN, 300 mg BID
# [4] = Grade 2, >2.5 - 5 × ULN, 300 mg BID
# [5] = Grade 3, >5 - 10 × ULN, 300 mg BID
compound,measurement,setting,value
"O=C(Cc1ccc(F)cc1)Nn1c(C2CC2)nc2cc(F)ccc2c1=O [PF‐04895162, N‐(2‐cyclopropyl‐7‐fluoro‐4‐oxoquinazolin‐3(4H)‐yl)‐2‐(4‐fluorophenyl)ethanamide]","ALT, Subject 8, Day 7",healthy subjects; 300 mg BID,1.5 x the ULN
same,Height of transaminase elevations,"healthy subjects; 300 mg BID, 14-day multiple dose",≤ 5 x the ULN
same,"ALT elevation, Subject 8","healthy subjects; 300 mg BID, Day 14, Grade 3",5.6 x ULN
same,"AST increase, Subject 8","healthy subjects; 300 mg BID, Grade 2",2.7 x ULN
same,"Number of Subjects discontinued due to AEs, all causalities","healthy subjects; 300 mg BID, N = 8",1 (1)
same,"Number of Subjects discontinued due to AEs, treatment-related","healthy subjects; 300 mg BID, N = 8",1 (1)
same,"Number of Subjects with AEs, all causalities","healthy subjects; 300 mg BID, N = 8",8
same,"Number of Subjects with AEs, treatment-related","healthy subjects; 300 mg BID, N = 8",6
same,"Number of Subjects with Amylase increased, all causalities","healthy subjects; 300 mg BID, N = 8",2 (2)
same,"Number of Subjects with Amylase increased, treatment-related","healthy subjects; 300 mg BID, N = 8",2 (2)
same,"Number of Subjects with Decreased appetite, all causalities","healthy subjects; 300 mg BID, N = 8",2
same,"Number of Subjects with Decreased appetite, treatment-related","healthy subjects; 300 mg BID, N = 8",0
same,"Number of Subjects with Flatulence, all causalities","healthy subjects; 300 mg BID, N = 8",2
same,"Number of Subjects with Flatulence, treatment-related","healthy subjects; 300 mg BID, N = 8",1
same,"Number of Subjects with Transaminases increased, all causalities","healthy subjects; 300 mg BID, N = 8",6 (6)
same,"Number of Subjects with Transaminases increased, treatment-related","healthy subjects; 300 mg BID, N = 8",6 (6)
same,Number of Subjects with serious AEs,"healthy subjects; 300 mg BID, N = 8",0
same,Number of Subjects with severe AEs,"healthy subjects; 300 mg BID, N = 8",0
same,"ALT response, Subject 6","healthy subjects; 300 mg BID, by Day 14",did not demonstrate any ALT elevations
same,"GGT elevation, Subject 8","healthy subjects; 300 mg BID, starting on Day 14",1.4 x ULN
same,Subjects with elevations in ALT on Day 14,"healthy subjects; 300 mg BID, subjects who finished Period 3",six of the remaining seven subjects
same,"Number of Subjects discontinued due to AEs, all causalities",healthy subjects; [1],0
same,"Number of Subjects with AEs, all causalities",healthy subjects; [1],1 (1)
same,"Number of Subjects with AEs, treatment-related",healthy subjects; [1],1 (1)
same,"Number of Subjects with Amylase increased, all causalities",healthy subjects; [1],0
same,"Number of Subjects with Decreased appetite, all causalities",healthy subjects; [1],0
same,"Number of Subjects with Flatulence, all causalities",healthy subjects; [1],0
same,"Number of Subjects with Transaminases increased, all causalities",healthy subjects; [1],0
same,Number of Subjects with serious AEs,healthy subjects; [1],0
same,Number of Subjects with severe AEs,healthy subjects; [1],0
same,"Number of Subjects discontinued due to AEs, all causalities",healthy subjects; [2],0
same,"Number of Subjects with AEs, all causalities",healthy subjects; [2],2
same,"Number of Subjects with AEs, treatment-related",healthy subjects; [2],0
same,"Number of Subjects with Amylase increased, all causalities",healthy subjects; [2],0
same,"Number of Subjects with Decreased appetite, all causalities",healthy subjects; [2],0
same,"Number of Subjects with Flatulence, all causalities",healthy subjects; [2],0
same,"Number of Subjects with Transaminases increased, all causalities",healthy subjects; [2],0
same,Number of Subjects with serious AEs,healthy subjects; [2],0
same,Number of Subjects with severe AEs,healthy subjects; [2],0
same,Subjects with transaminase elevations (≥grade 1),"healthy subjects; 300 mg twice daily for 2 weeks, healthy subjects",six of eight
same,"Lipase, Subject 7","healthy subjects; Day 3 of Period 3, 300 mg BID, ULN = 60 IU/L",434 IU/L
same,"Amylase, Subject 7","healthy subjects; Day 3 of Period 3, 300 mg BID, ULN = 136 IU/L",179 IU/L
same,"TBIL abnormalities, number of subjects, Grade 1","healthy subjects; Grade 1, >1 - 1.5 × ULN, 300 mg BID",2
same,"ALT abnormalities, number of subjects, Grade 1",healthy subjects; [3],3
same,"AST abnormalities, number of subjects, Grade 1",healthy subjects; [3],0
same,"TBIL abnormalities, number of subjects, Grade 2","healthy subjects; Grade 2, >1.5 - 2.5 × ULN, 300 mg BID",0
same,"ALT abnormalities, number of subjects, Grade 2",healthy subjects; [4],2
same,"AST abnormalities, number of subjects, Grade 2",healthy subjects; [4],1
same,"TBIL abnormalities, number of subjects, Grade 3","healthy subjects; Grade 3, >2.5 - 5 × ULN, 300 mg BID",0
same,"ALT abnormalities, number of subjects, Grade 3",healthy subjects; [5],1
same,"AST abnormalities, number of subjects, Grade 3",healthy subjects; [5],0
same,"TBIL abnormalities, number of subjects, Grade 4","healthy subjects; Grade 4, >5 × ULN, 300 mg BID",0
same,"ALT abnormalities, number of subjects, Grade 4","healthy subjects; Grade 4, >10 × ULN, 300 mg BID",0
same,"AST abnormalities, number of subjects, Grade 4","healthy subjects; Grade 4, >10 × ULN, 300 mg BID",0
same,Concentrations at which mitochondrial respiratory reserve was compromised,human hepatocytes,> 11 µmol/L
